Data taken from patent EP4782431A1 (Suzhou Merna Therapeutics Co. Ltd, priority 2023, dated 2025).

Tests used:
HaCaT cells [1] = experiment: m6A methylation level of human keratinocytes (EpiQuik m6A RNA methylation quantification kit); format: cell-based; conditions: 50 nM drug alone, 24 hours, relative to control group 1 (DMSO)
Description: HaCaT cells were cultured in DMEM culture medium containing 10% fetal bovine serum, 100 U/mL penicillin, and 100 µg/mL streptomycin. Culture dishes were placed in an incubator containing 5% CO2 for culture at 37°C for 24 hours. An equal volume of DMSO was added in control group 1, 50 nM sorafenib, capecitabine, docetaxel, and osimertinib were respectively added in control groups A, B, C, and D, and 400 nM test compounds or nicotinamide were respectively added in sample groups A1, A2, B1, B2, C1, C2, D1, and D2 after the addition of 50 nM corresponding compounds. The cells were continuously cultured for 24 hours, washed with PBS, and then collected by high-speed centrifugation. Total RNA was extracted using Trizol reagent (Sigma Aldrich), and RNA m6A methylation of a sample was quantitatively detected using an EpiQuik m6A RNA methylation quantification kit. The concentrations of positive control samples for a standard curve were 0.01 ng/µl, 0.02 ng/µl, 0.05 ng/µl, 0.1 ng/µl, 0.2 ng/µl, and 0.5 ng/µl. The absorbance at 450 nm was read using a microplate reader (Tecan GENios). A quantitative calculation formula for m6A is as follows: m6A(ng) = (absorbanceofsamplewell−absorbanceofbackroundwell)/slope of standard curve [formula] m6A(%) = m6A(ng)/RNA amount of sample(ng)*100%. [formula]

[2] = test system: chemotherapeutic drug-induced mouse model with hand-foot syndrome; experiment: chemotherapeutic drug-induced mouse model with hand-foot syndrome; format: in vivo, ICR mice; conditions: for swelling of the hind limb toes of the mice / epidermal layer and the stratum corneum in the skin tissues of the hind limb toes: modeling drug oral; for swelling of the hind limb toes of the mice: 14 days: capecitabine 200 mg/kg, docetaxel 25 mg/kg; for epidermal layer and the stratum corneum in the skin tissues of the hind limb toes: 14 days: capecitabine, docetaxel; for skin of the hind limb toes of the mice (appearance): modeling for 14 days: capecitabine 200 mg/kg, docetaxel 25 mg/kg oral gavage once daily
Source text: After adaptive feeding for 7 days, SPF-grade ICR mice (male, 5-6 weeks old, with a body weight of approximately 35 g) were randomly divided into groups, including a blank control group (6 mice), a capecitabine modeling group (6 mice), a docetaxel modeling group (6 mice), a capecitabine + compound of formula (I) group (6 mice), a docetaxel + compound of formula (I) group (6 mice), a capecitabine + nicotinamide group (6 mice), and a docetaxel + nicotinamide group (6 mice). The groups were respectively administered corresponding modeling drugs by oral gavage (capecitabine at 200 mg/kg and docetaxel at 25 mg/kg) once daily; and the blank control group was administered an equivalent volume of normal saline. After administration with the chemotherapeutic drugs for 2 weeks, the ointments containing the compound of formula (I) (at a compound content of 3%) used in Example 10 were respectively applied topically in the groups, or nicotinamide was orally administered (100 mg/kg) once daily continuously for 16 days.
Measurement of the degree of swelling of toes: The degree of swelling of hind limb toes of the mice was measured using a toe swelling tester (KW-7C, Nanjing Calvin Biotechnology Co., Ltd.) before administration with the modeling drugs, after administration with the modeling drugs for 2 weeks, and before sacrifice, respectively. Before measurement, ankle joints of hind feet of the mice were marked at same positions before administration, after administration for 2 weeks, and before sacrifice. During measurement, water was properly located at the same level as the marked positions, and numerical values were recorded after becoming stable.
Pathological staining of skin tissues: Skin tissue samples were selected from hind limb toes of the mice and placed in 4% paraformaldehyde for fixation at room temperature for 4 hours. Then, the tissues were taken out and rinsed with running water for several hours. The samples were subjected to dehydration treatment with 70%, 80%, and 90% ethanol solutions, followed by treatment with a mixed solution of equal amounts of absolute alcohol and xylene for 15 minutes, and then permeabilized twice with a xylene solution for 15 minutes each time until the samples became transparent. The samples were placed in a mixture of half xylene and half paraffin for soaking for 15 minutes, and then, paraffin I and paraffin II were added for wax penetration for one hour, respectively. After embedding with paraffin, the samples were sectioned, baked, dewaxed, and hydrated. Then, the hydrated sections were placed in a hematoxylin solution (ZSGB-BIO, article No. 23041001) for staining for 3 minutes, and a differentiation solution of hydrochloric acid in ethanol was added for differentiation for 15 seconds. After rinsing with water, a Scott bluing solution (Servicebio, article No. 20230801) was added for bluing for 15 seconds. After rinsing with running water, the sections were stained with an eosin solution (Solarbio, article No. 33535) for 3 minutes, rinsed with running water, dehydrated, permeabilized, sealed, and inspected under a microscope.
Immunohistochemical staining: After baking, dewaxing, and hydration, paraffin sections of skin tissues of hind limb toes of the mice were subjected to antigen retrieval using a 0.2 M citric acid buffer solution (containing 1.534 g of citric acid, 3.1 g of sodium citrate, and 100 mL of distilled water, pH 4.7). Endogenous […] was removed using 3% hydrogen peroxide (Shandong Annjet High-Tech Disinfection Technology Co., Ltd., article No. 20290902), and the sections were incubated at room temperature for 10 minutes and then fully rinsed with a PBS buffer solution (containing 8 g of NaCl, 0.2 g of KCl, 1.44 g of Na2HPO4, and 1 M HCl, pH 7.4). The sections were permeabilized with 0.5% Triton-X-100 (AmyJet Scientific, article No. A-CSH436-100 mL), respectively permeabilized with mouse anti-IL-1β and rabbit IL-8 for 10 minutes, and not permeabilized with rabbit anti-IL-6. […]

HaCaT cells [3] = experiment: m6A methylation level of drug-treated HaCaT keratinocytes by nanopore sequencing; format: cell-based, human; conditions: 50 nM drug, 24 hours, vs blank control group
Description: 1*10^8 HaCaT cells were seeded in culture dishes, into which 50 nM drugs (including sorafenib, capecitabine, docetaxel, and osimertinib) were added, respectively. The cells were cultured in an incubator containing 5% CO2 at 37°C for 24 hours and washed with PBS after culture media were removed. Centrifugation was performed, the supernatant was discarded, and then, 400 µL of an RLT cell lysis buffer (QIAGEN, Cat.#79216) was added. A portion of samples were selected, into which 400 µL of 70% ethanol was added. The mixture was evenly stirred and then transferred to an RNeasy mini column, and RNA was extracted using an RNeasy mini kit (QIAGEN, Cat.#74104). 2 µL of an RNA sample was selected and dissolved in 98 µL of a 10 mM Tris-HCl buffer solution, and the absorbance at 260 nm was measured using a Nanodrop (Thermo Fisher Scientific) to determine the RNA concentration.
40 µg of an RNA sample was selected for enrichment of mRNA (PolyA+RNA) using an NEBNext Poly(A) mRNA magnetic isolation module (NEB, Cat.#E7490), and then, a 3' end of the above enriched mRNA (PolyA+RNA) molecule was ligated with reverse transcription adapter RTA using a direct RNA sequencing kit (Oxford Nanopore Technologies, Cat.#SQK-RNA002). A reverse transcription reaction was performed with the mRNA (PolyA+RNA) molecule as a template to synthesize a complementary strand, a terminal end of the reverse transcription adapter RTA was ligated with a sequencing adapter (RNA adapter) to form a final sequencing library, and quantitative detection was performed using a Qubit™ dsDNA HS assay kit (Invitrogen, Cat.#LOT2133187).
After quality inspection of the library, the prepared sequencing library was loaded onto a PromethION flow cell chip (Oxford Nanopore Technologies, Cat.#FLO-MIN106D), and placed in a PromethION sequencer (Oxford Nanopore Technologies) for sequencing by selecting a matched sequencing mode. Basecalling was performed on sequencing data through guppy, and m6A methylation analysis was performed on original fast5 data.

[4] = competitive suspension tests of crystal forms (XRPD); format: physicochemical; conditions: isopropanol, isopropyl acetate, and acetonitrile; 5°C, 25°C, 50°C, 3 days
Description: A 2θ scanning angle of the sample was 3°-40°, a scanning step size was 0.02°, and a scanning time per step was 0.12 s/step. An optical tube voltage and a current were 40 kV and 40 mA, respectively. During sample preparation, an appropriate amount of the sample was placed on a sample tray and flattened with a tool such as a glass slide to ensure a smooth and even surface.
Resulting suspensions were suspended at 5°C, 25°C, and 50°C for 3 days, respectively. The resulting suspensions were centrifuged, and solid portions were detected by XRPD.

Structure (SMILES)	m6A fold change (HaCaT cells [1])	cytokine IL-8 in the skin tissues of the hind limb toes of the mice ([2]; capecitabine oral 14 days, vs normal control group, p<0.05)	swelling of the hind limb toes of the mice [2]	epidermal layer and the stratum corneum in the skin tissues of the hind limb toes ([2]; vs normal control group)	skin of the hind limb toes of the mice (appearance) ([2]; vs normal control group)	m6A methylation levels of HaCaT cells higher than that of the control group (HaCaT cells [3])	crystal form after competitive suspension slurrying [4]	cytokine IL-6 in the skin tissues of the hind limb toes of the mice ([2]; docetaxel oral 14 days, vs normal control group, p<0.05)
CCCCCOC(=O)Nc1nc(=O)n([C@@H]2O[C@H](C)[C@@H](O)[C@H]2O)cc1F [Capecitabine, capecitabine]	6.7 fold	significantly increased	swelling of the hind limb toes of the mice was caused	significantly thickened	obvious erythema, rhagades, and blisters	6.01 fold		
NC(=O)[C@H]1CCCc2c1[nH]c1ccc(Cl)cc21 [Crystal form B, (S)-6-chloro-2,3,4,9-tetrahydro-1H-carbazole-carboxamide]							converted into the crystal form F	
CC(=O)O[C@@]12CO[C@@H]1C[C@H](O)[C@@]1(C)C(=O)[C@H](O)C3=C(C)[C@@H](OC(=O)[C@H](O)[C@@H](NC(=O)OC(C)(C)C)c4ccccc4)C[C@@](O)([C@@H](OC(=O)c4ccccc4)[C@H]21)C3(C)C [Docetaxel, docetaxel]	5.6 fold		swelling of the hind limb toes of the mice was caused	significantly thickened	obvious erythema, rhagades, and blisters	3.97 fold		significantly increased
